In US20110312992A1, “Inhibitors of C-Kit and Uses Thereof” (priority 2006, published 2011):
Counter-ions that a name gives are not always drawn. Each block holds one compound with its values, some of them ahead of it.

Legend:
[1] = target: c-Kit (Homo sapiens, UniProt P10721); experiment: c-Kit kinase enzymatic assay (tyrosine phosphorylation, UpState protocol); assay type: biochemical; conditions: FIG. 5
Protocol: IC50 values were determined for compounds of Examples 1, 10, 12 and 13 using a c-Kit kinase enzymatic assay. Phosphorylation of tyrosine was measured using a kinase assay protocol as provided by UpState Cell Signaling Solutions (Lake Placid, N.Y.). […] The results of the kinase assays validate the modeling and assessment of the structure/activity relationship data.

[2] = Inhibition of cell proliferation in the absence and presence of SCF (FIG. 22); assay type: cell-based; conditions: absence vs presence of externally introduced SCF
[3] = system: OCI/AML3; experiment: MTT-based cell proliferation/toxicity assay, OCI/AML3; parameters: species or system human; conditions: for ability to reduce cell line (dose response): OCI/AML3, FIG. 25
Description: (§1) An MTT- (3,(4,5-dimethylthiazol-2-yl)-5-(3-carboxymethoxyphenyl)-2-(4-sulfophenyl)-2H-tetrazolium) based cell proliferation/toxicity assay system (Promega, Madison, Wis.) using cell lines, including the AML cell lines OCIM2 and OCI/AML3, was used to evaluate the effectiveness of the compounds as set forth herein in inhibition of c-Kit cellular activity.
(§2) AML cell lines OCIM2 and OCI/AML3 are human erythroleukemia lines and were provided by M. D. Minden, (Ontario Cancer Institute, Toronto, ON, Canada and as referenced in: Papayannopoulou et al., Blood (1988) 72:1029-1038; Wang et al., Leukemia (1989) 3: 236-249). Cells were maintained in RPMI 1640 culture medium (GIBCO, Grand Island, N.Y.) supplemented with 10% FCS (Flow Laboratories, McLean, Va.) and split twice weekly.
(§3) Briefly, cells were harvested at the logarithmic phase of their growth. They were then washed twice in RPMI 1640 containing 10% FCS and counted in a hemocytometer, and their viability was determined using 0.1% trypan blue staining. Equal numbers of viable cells (5×10^4 cells per well) were incubated in RPMI 1640 medium supplemented with 10% FCS alone or with the candidate drugs at increasing concentrations; the incubations were continued for 72 h in 96-well flat-bottomed plates (Linbro; Flow Laboratories, McLean, Va.) at 37° C. in a humidified 5% CO2 atmosphere. After incubation, 20 μl of CellTiter96 One Solution Reagent (Promega) was added to each well. The plates were then incubated for an additional 60 min at 37° C. in a humidified 5% CO2 atmosphere. Immediately after incubation, absorbance was read using a 96-well plate reader at a wavelength of 490 nm. Each data point was determined six times before analysis.
(§4) While OCIM2 and OCI/AML3 are both AML cell lines, c-Kit is expressed to a much higher degree in the OCI/AML3 line versus OCIM2, as determined by the responsiveness to stem cell factor (SCF), which mediates c-Kit receptor dimerization, activation, and autophosphorylation (Blume-Jensen, et al., (1991) EMBO Journal 10, 4121-8).

[4] = system: OCI/AML3; experiment: Colony-forming cell proliferation, OCI/AML3; assay type: cell-based, human; conditions: OCI/AML3, FIG. 18
[5] = system: HCM1.2 cell line; experiment: Systemic mastocytosis cell line with mutated c-Kit (position 816); assay type: cell-based; conditions: HCM1.2 (mutated c-Kit, position 816) vs HCM1.1 (wild-type), FIG. 12 and 13
Protocol: The effect of compound 1-[3-(4-fluoro)-1H-pyrazolo[3,4-b]pyridin-6-yl]-3,5-dimethoxy]benzene on two systemic mastocytosis cell lines with unmutated (wild-type) c-Kit (HCM1.1 cell line) and a cell line with mutated c-Kit (mutation at position 816) (HCM1.2 cell line) was also determined. Cell lines were obtained from Dr. Verstovsek (Leuk Res. 2006 Jun. 22, online prepublication).

[6] = system: OCI/AML3; experiment: Cell cycle analysis in OCI/AML3; assay type: cell-based, human; conditions: OCI/AML3, FIG. 15
[7] = system: OCIM2; experiment: MTT-based cell proliferation/toxicity assay, OCIM2; parameters: species or system human
Description: as §1, §2, §3, §4

[8] = system: AML5; experiment: Inhibition of cell proliferation of AML1-AML6 in the presence of SCF; assay type: cell-based; conditions: AML5 among AML1-AML6, in the presence of SCF, FIG. 23

Sequence of c-Kit (P10721 26-976): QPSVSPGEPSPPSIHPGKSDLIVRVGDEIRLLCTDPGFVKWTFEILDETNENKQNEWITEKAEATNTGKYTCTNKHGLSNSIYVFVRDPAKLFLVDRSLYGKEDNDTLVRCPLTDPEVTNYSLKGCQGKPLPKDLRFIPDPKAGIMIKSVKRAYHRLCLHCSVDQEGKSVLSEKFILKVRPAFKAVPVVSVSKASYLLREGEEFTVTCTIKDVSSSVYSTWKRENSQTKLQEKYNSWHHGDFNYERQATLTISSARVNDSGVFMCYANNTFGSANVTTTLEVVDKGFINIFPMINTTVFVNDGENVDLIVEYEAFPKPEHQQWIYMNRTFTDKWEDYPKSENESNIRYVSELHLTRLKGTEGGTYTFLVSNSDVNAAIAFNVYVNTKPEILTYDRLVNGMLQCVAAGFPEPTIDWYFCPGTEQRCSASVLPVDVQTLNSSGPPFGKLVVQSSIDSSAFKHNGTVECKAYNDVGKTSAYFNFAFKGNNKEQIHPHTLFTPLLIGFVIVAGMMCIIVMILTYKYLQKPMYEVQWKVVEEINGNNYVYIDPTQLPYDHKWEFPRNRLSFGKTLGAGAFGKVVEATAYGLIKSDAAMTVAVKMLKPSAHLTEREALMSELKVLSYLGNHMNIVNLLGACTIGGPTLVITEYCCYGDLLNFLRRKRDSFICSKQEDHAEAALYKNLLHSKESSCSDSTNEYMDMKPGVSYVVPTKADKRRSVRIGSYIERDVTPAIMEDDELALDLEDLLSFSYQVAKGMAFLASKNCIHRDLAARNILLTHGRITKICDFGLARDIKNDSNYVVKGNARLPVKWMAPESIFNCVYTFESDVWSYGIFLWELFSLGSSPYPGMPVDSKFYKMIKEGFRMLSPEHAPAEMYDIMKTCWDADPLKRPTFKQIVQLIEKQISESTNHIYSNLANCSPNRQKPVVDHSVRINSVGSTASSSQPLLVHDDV

IC50 [1]: > 100000 nM
Compound: COc1cc(OC)cc(-c2ccc3c(-c4ccc(F)cc4)n[nH]c3n2)c1 [Example 10]
effect of SCF on inhibition of cell proliferation [2]: enhanced by the presence of externally introduced SCF
sensitivity of proliferation ([3]; OCI/AML3, FIG. 16): quite sensitive
comparison with BMS-354825 and Gleevec ([3]; percent of control, FIG. 24): favorable comparison
colony-forming cell proliferation [4]: inhibits
selectivity between mastocytosis cell lines [5]: selectivity for the cell line containing mutated c-Kit
cell cycle effect [6]: causes the accumulation of OCI/AML3 in Sub-G0 phase
sensitivity of proliferation ([7]; OCIM2, FIG. 16): less sensitive
proliferation of SCF-stimulated cells ([7]; OCIM2 with and without 50 ng/mL SCF, FIG. 9): inhibiting the proliferation
inhibition of cell proliferation [8]: less effective inhibition

Compound: CC(=O)Nc1cccc(-c2ccc3c(-c4ccc(F)cc4)n[nH]c3n2)c1 [Example 3, 3-[3-(4-Fluorophenyl)-1H-pyrazolo[3,4-b]pyridin-6-yl]acetanilide]
ability to reduce cell line (dose response) [3]: same effective ability to reduce OCI/AML3 cell line

IC50 [1]: ~3600 nM
Compound: CCOC(=O)c1ccc(-c2n[nH]c3nc(-c4ccc(C(=O)NCCN(C)C)cc4)ccc23)cc1 [Example 13]
ability to reduce cell line (dose response) [3]: same effective ability to reduce OCI/AML3 cell line

IC50 [1]: ~1200 nM
Compound: COc1ccc(-c2n[nH]c3nc(-c4cc(OC)cc(OC)c4)ccc23)cc1 [Example 12]
ability to reduce cell line (dose response) [3]: same effective ability to reduce OCI/AML3 cell line

Compound: Cc1ccc(NC(=O)c2ccc(CN3CCN(C)CC3)cc2)cc1Nc1nccc(-c2cccnc2)n1 [imatinib mesylate, reference compound]
response of cell line to prior art compound ([3]; OCI-AML3 expressing c-Kit, FIG. 6 / FIG. 10): resistant
response of cell line to prior art compound ([7]; OCIM2 uninduced, FIG. 10): resistant

IC50 [1]: ~95 nM
Compound: COc1ccc(-c2n[nH]c3nc(-c4cccc(NC(C)=O)c4)ccc23)cc1 [Example 1, 3-{(4-Methyloxyphenyl)-1H-pyrazolo[4,3-b]pyridin-6-yl}acetanilide]
EC50 ([3]; Homo sapiens, OCI-AML-3, cell viability, OCI/AML3, 72 h, FIG. 6): ~100 nM
ability to reduce cell line (dose response) [3]: same effective ability to reduce OCI/AML3 cell line
